Results as given in patent publication US10869931B2, “Polyethylene glycol-modified angiogenesis inhibitor HM-1 and application thereof” (NANJING ANJI BIOLOGICAL TECHNOLOGY CO.,LTD, priority 2016, dated 2020).
Marks after values point to notes of the source that are not given here. Where no end group is shown, it is not given here.

How the values were obtained:
[1] = test system: human retinal vascular endothelial cells (HRCEC); experiment: MTT proliferation of human retinal vascular endothelial cells; assay type: cell-based; settings: 48 h; for Inhibition rate: HRCEC proliferation; for A570 nm-A630 nm: HRCEC, MTT
Procedure: The activity of the angiogenesis inhibitor polypeptide to inhibit proliferation of human retinal vascular endothelial cells was examined by MTT assay. HRCEC cells were cultured in a 37° C., 5% CO2 incubator to a density of 90% or more, and collected by trypsinization. The cells were resuspended in the culture medium and counted under a microscope to adjust the cell concentration to 3.0×10^4 cells/mL. The cell suspension was inoculated into a 96-well plate at 100 μL per well and cultured overnight at 37° C. in a 5% CO2 incubator. After the cells were completely adhered, the angiogenesis inhibitor polypeptide was added as the administration group, and Avastin was used as the positive control group, and the culture media without any drug was used as a blank control group, and the culture media were diluted to each predetermined concentration. Each dilution was separately added to a 96-well plate at 100 μL per well and incubated for 48 h at 37° C. in a 5% CO2 incubator. 20 μL of 5 mg/mL MTT was added to each well of a 96-well plate and incubation was continued for 4 h. The medium was aspirated and dissolved in 100 μL of DMSO per well. […] The formula is as follows: PI (%)=1−administration group/negative group
The test was repeated 3 times independently. The results obtained by the test were expressed as mean±SD, and a statistical T test was performed. *P<0.05 was a significant difference, and **P<0.01 was a very significant difference.

[2] = test system: Liver cancer tumor cells; experiment: MTT proliferation inhibition, liver cancer cells; assay type: cell-based, human; set-up: concentration or dose not given beside the values; settings: 48 h
Procedure: (§1) The activity of mPEG-HM-1 to inhibit the growth of various tumor cells was examined by MTT assay. The tumor cells were cultured to a concentration of 90% or more in a 37° C., 5% CO2 incubator and collected by trypsinization. The cells were resuspended in the culture medium and counted under a microscope to adjust the cell concentration to 2×10^4 cells/mL, the cell suspension was inoculated into a 96-well plate at 100 μL/well and incubated overnight at 37° C. in a 5% CO2 incubator. mPEG-HM-1 was diluted with the culture solution to each predetermined concentration. Docetaxel is diluted to the final concentration with the culture medium. After the cells were fully attached, each dilution was added to a 96-well plate (100 μL/well). The mPEG-HM-1 dilution was added as a drug-administered group, and docetaxel was added as a positive control group, and a culture solution without any drug was used as a negative control group. Incubate for 48 h at 37° C. in a 5% CO2 incubator. 5 mg/mL of MTT was added to a 96-well plate at 20 μL per well, and incubation was continued for 4 hours. The medium was aspirated, dissolved in 150 μL of DMSO per well, and gently mixed by shaking for 10 min. The absorbance was measured at a measurement wavelength of 570 nm and a reference wavelength of 630 nm using a microplate reader, and the rate of growth inhibition (proliferation inhibition, PI) was calculated. The formula is as follows: PI (%)=1−administration group/negative group
(§2) The test was repeated 3 times independently, and the results obtained by the test were expressed as mean±SD, and the test results are shown in Table 15 to Table 18.

[3] = test system: Gastric cancer tumor cells; experiment: MTT proliferation inhibition, gastric cancer cells; assay type: cell-based, human; set-up: concentration or dose not given beside the values; settings: 48 h
Procedure: as §1, §2

[4] = test system: retinal neovascular clusters in OIR C57/B16 mice; experiment: Retinal blood vessels in OIR mice; assay type: in vivo, mouse; settings: for Neovascular clusters area: retina evaluated on day 17; for Inhibition rate: neovascular clusters area vs control, day 17
Excerpt: Establishment of the OIR model: Exposure of young mouse and their mothers to 75% hyperoxic environment from day 7 to day 12 after birth of C57/B16 mice caused rapid disappearance of capillaries in the central retina. Upon returning to the indoor air on the 12th day, the retinal blood vessels, upon exposing to hyperoxia, rapidly disappeared, causing extensive abnormal neovascularization, and the central portion of the retina remained largely avascular for a long time. After the blood vessels disappeared completely, on the 13th day, physiological saline (negative control group), mPEG-SC-HM-1, mPEG2-NHS-HM-1, mPEG-ALD10k-HM-1, and mPEG-bALD-HM-1, were administered by intravitreal injection and retinal vessels were evaluated on day 17 (to label unclosed vessels, […] of Texas Red-labeled tomato lectin was injected into the left ventricle and circulated for 5 min).

[5] = test system: Uterine cancer tumor cells; experiment: MTT proliferation inhibition, uterine cancer cells; assay type: cell-based, human; set-up: concentration or dose not given beside the values; settings: 48 h
Procedure: as §1, §2

[6] = in vivo
[7] = test system: choroidal neovascularization in BN rats; experiment: Laser-induced choroidal neovascularization in BN rats (FFA); assay type: in vivo, rat
Procedure: 6-8 weeks old male BN rats were anesthetized with 846 compound anesthetic 0.5 mL/kg administered intraperitoneally. The eye drops of compound tropamide eyes were used 5 minutes before laser photocoagulation, and the pupils of both eyes were fully scattered. Fix animals, with the aid of −53.00 D contact lens, around the optic disc and along the same distance from the optic disc 2PD, the laser beam photocoagulation were performed to make a total of 8 photo-condensation spots, with laser wavelength of 647.1 nm, power of 350 mW, photocoagulation spot diameter and time were 50 μm and 0.05 s, respectively. Immediately after photocoagulation, fundus photography was performed. FFA, histopathology and transmission electron microscopy were performed at 3, 7, 14, 21, and 28 days after photocoagulation.
It was confirmed by fundus photography and FFA examination that the fluorescein leakage of photocoagulation peaked on the 21st day after photocoagulation, and histopathological examination was performed at the same time. […] A large number of neovascular vessels were seen, and red blood cells were visible in the lumen. Microscopically, capillary cells in the choroidal melanocytes were cohesively altered and endothelial cells aggregated.
Rats that were successfully modeled were randomly divided into groups of 5 rats each. They were labeled as negative control group, mPEG-SC-HM-1 treatment group, mPEG2-NHS-HM-1 treatment group, mPEG-ALD-HM-1 treatment group and mPEG-bALD-HM-1 treatment group, respectively. Saline, mPEG-HM-1 (see Table 53 for dosing) was administered intravitreally, once daily for 1 week. FFA examinations were performed 3 days, 7 days, 14 days, and 28 days after administration of the modified peptides.

[8] = 200 μg intravitreal injection on day 13
[9] = Day 3 after administration, 200 μg intravitreally once daily for 1 week (Table 53)
[10] = Day 3 after administration, 200 μg intravitreally once daily for 1 week (Table 53), total spots 290-296 by table
[11] = Day 7, 200 μg intravitreally once daily for 1 week (Table 53)
[12] = Day 7, 200 μg intravitreally once daily for 1 week (Table 53), total spots 182-188 by table
[13] = Day 14, 200 μg intravitreally once daily for 1 week (Table 53)
[14] = Day 14, 200 μg intravitreally once daily for 1 week (Table 53), total spots 132-138 by table
[15] = Day 28, 200 μg intravitreally once daily for 1 week (Table 53)
[16] = Day 28, 200 μg intravitreally once daily for 1 week (Table 53), total spots 67-71 by table

Substance	Inhibition rate ([1]; 80 μg/mL) [%*]	A570 nm-A630 nm ([1]; 80 μg/mL)	Inhibition rate ([1]; 100 μg/mL) [%**]	A570 nm-A630 nm ([1]; 100 μg/mL)	Inhibition rate ([1]; 120 μg/mL) [%*]	A570 nm-A630 nm ([1]; 120 μg/mL)	rate of growth inhibition [2] [%]	rate of growth inhibition [3] [%]	Neovascular clusters area [4, 8] [mm^2]	Inhibition rate ([4]; 200 μg intravitreal)	rate of growth inhibition [5] [%]	AUC0-∞ [6] [mg/L/h]	CL [6] [mL/min/kg]	MRT0-∞ [6] [h]	T1/2β (half-life) [6] [h]	CNV Incidence rate [7, 9] [%]	leakage Spots # [7, 10]	CNV Incidence rate [7, 11] [%]	leakage Spots # [7, 12]	CNV Incidence rate [7, 13] [%]	also measured
mPEG-SC40k-Arg-Gly-Ala-Asp-Arg-Ala-Gly-Gly-Gly-Gly-Arg-Gly-Asp ({mPEG‑SC 40 kDa}-RGADRAGGGGRGD) [mPEG-SC40k-HM-1]	42.27	0.7567 ± 0.07109	53.16	0.6139 ± 0.0712	63.68	0.4760 ± 0.07009	60.37 ± 14.74	55.13 ± 10.32	0.119 ± 0.005	46.18%*	70.27 ± 21.37	4365.64 ± 11.06	0.113 ± 0.0783	16.36 ± 10.28	42.19 ± 0.32	50.68	150	50.00	94	44.44	leakage Spots # [7, 14]: 60; CNV Incidence rate [7, 15]: 43.28%; leakage Spots # [7, 16]: 29
mPEG-SC5k-Arg-Gly-Ala-Asp-Arg-Ala-Gly-Gly-Gly-Gly-Arg-Gly-Asp ({mPEG‑SC 5 kDa}-RGADRAGGGGRGD) [mPEG-SC5k-HM-1]	–	–	–	–	–	–	51.34 ± 11.25	52.12 ± 13.22	–	–	60.25 ± 16.09	4391.72 ± 12.85	0.997 ± 0.18	7.68 ± 2.97	8.31 ± 0.12	–	–	–	–	–	Inhibition rate ([1]; 20 μg/mL): 42.22%*; A570 nm-A630 nm ([1]; 20 μg/mL): 0.7573 ± 0.09088; Inhibition rate ([1]; 40 μg/mL): 51.76%**; A570 nm-A630 nm ([1]; 40 μg/mL): 0.6323 ± 0.08797; Inhibition rate ([1]; 60 μg/mL): 62.10%*; A570 nm-A630 nm ([1]; 60 μg/mL): 0.4968 ± 0.08679; Neovascular clusters area ([4]; 25 μg intravitreal injection on day 13): 0.116 ± 0.012 mm^2; Inhibition rate ([4]; 25 μg intravitreal): 47.42%*; CNV Incidence rate ([7]; Day 3 after administration, 25 μg intravitreally once daily for 1 week (Table 53)): 54.73%; leakage Spots # ([7]; Day 3 after administration, 25 μg intravitreally once daily for 1 week (Table 53), total spots 290-296 by table): 162; CNV Incidence rate ([7]; Day 7, 25 μg intravitreally once daily for 1 week (Table 53)): 53.19%; leakage Spots # ([7]; Day 7, 25 μg intravitreally once daily for 1 week (Table 53), total spots 182-188 by table): 100; CNV Incidence rate ([7]; Day 14, 25 μg intravitreally once daily for 1 week (Table 53)): 48.15%; leakage Spots # ([7]; Day 14, 25 μg intravitreally once daily for 1 week (Table 53), total spots 132-138 by table): 65; CNV Incidence rate ([7]; Day 28, 25 μg intravitreally once daily for 1 week (Table 53)): 47.76%; leakage Spots # ([7]; Day 28, 25 μg intravitreally once daily for 1 week (Table 53), total spots 67-71 by table): 32
mPEG-bALD40k-Arg-Gly-Ala-Asp-Arg-Ala-Gly-Gly-Gly-Gly-Arg-Gly-Asp ({mPEG‑bALD 40 kDa}-RGADRAGGGGRGD) [mPEG-bALD40k-HM-1]	44.81	0.7349 ± 0.07082	55.03	0.5988 ± 0.07291	63.12	0.4911 ± 0.07534	58.72 ± 10.80	68.65 ± 16.93	0.110 ± 0.012	50.31%**	70.51 ± 20.22	5065.72 ± 9.56	0.11 ± 0.11	16.75 ± 3.29	43.88 ± 0.20	52.22	153	50.81	94	47.10	leakage Spots # [7, 14]: 65; CNV Incidence rate [7, 15]: 42.03%; leakage Spots # [7, 16]: 29
